Laboratory results as given in ChEMBL document CHEMBL4732125, “Structures/cytotoxicity/selectivity relationship of natural steroidal saponins against GSCs and primary mechanism of tribulosaponin A” (Eur J Med Chem, 2021).
Activity calls are given as the source filed them. No cut-off for these calls is given here.

Key:
[1] = test system: GSC-18; test: Inhibition of colony formation in human GSC-18 cells assessed as decrease in number of tumor spheres at 15 uM after 2 weeks by crystal violet staining based assay; format: functional, cell-based
[2] = test system: GSC-3; test: Inhibition of colony formation in human GSC-3 cells assessed as decrease in number of tumor spheres at 15 uM after 2 weeks by crystal violet staining based assay; format: functional, cell-based
[3] = test system: GSC-3; test: Inhibition of colony formation in human GSC-3 cells assessed as tumor spheres damage at 15 uM after 2 weeks by crystal violet staining based assay; format: functional, cell-based
[4] = test system: GSC-18; test: Inhibition of colony formation in human GSC-18 cells assessed as tumor spheres damage at 15 uM after 2 weeks by crystal violet staining based assay; format: functional, cell-based
[5] = test system: GSC-3; test: (§1) Cytotoxicity against human GSC3 cells assessed as reduction in cell viability after 72 hrs by MTS assay; format: functional, cell-based
[6] = test system: HUVEC; test: Cytotoxicity against HUVEC assessed as reduction in cell viability after 72 hrs by MTS assay; format: cell-based, Homo sapiens; conditions: for IC50: Homo sapiens, HUVEC
[7] = test system: GSC-18; test: (§2) Cytotoxicity against human GSC18 cells assessed as reduction in cell viability after 72 hrs by MTS assay; format: functional, cell-based
[8] = test system: HEK-293T; test: Cytotoxicity against human 293T cells assessed as reduction in cell viability after 72 hrs by MTS assay; format: cell-based; conditions: for IC50: Homo sapiens, HEK-293T
[9] = as §1; format: functional, cell-based; conditions: GSC-3, 72 h
[10] = test system: U-87 MG; test: Cytotoxicity against human U-87 MG cells assessed as reduction in cell viability after 72 hrs by MTS assay; format: cell-based, U-87MG ATCC
[11] = test system: T98G; test: Cytotoxicity against human T98G assessed as reduction in cell viability after 72 hrs by MTS assay; format: cell-based
[12] = as §2; format: functional, cell-based, GSC-18; conditions: GSC18, 72 h
[13] = test system: HEK-293T; test: Cytotoxicity against human 293T cells assessed as inhibition of cell growth at 20 uM after 5 days; format: cell-based; conditions: 120 h, time 5 day
[14] = test system: GSC-3; test: Cytotoxicity against human GSC3 cells assessed as inhibition of cell growth at 20 uM after 5 days; format: functional, cell-based; conditions: time 5.0 day
[15] = test system: U-87 MG; test: Cytotoxicity against human U-87 MG cells assessed as inhibition of cell growth at 20 uM after 5 days; format: cell-based; conditions: u-87mg atcc, 120 h, time 5 day
[16] = test system: T98G; test: Cytotoxicity against human T98G cells assessed as inhibition of cell growth at 20 uM after 5 days; format: cell-based; conditions: 120 h, time 5 day
[17] = test system: HUVEC; test: Cytotoxicity against HUVEC assessed as inhibition of cell growth at 20 uM after 5 days; format: cell-based; conditions: human, 120 h, time 5 day
[18] = test system: GSC-18; test: Cytotoxicity against human GSC18 cells assessed as inhibition of cell growth at 20 uM after 5 days; format: functional, cell-based; conditions: time 5.0 day

Row | SMILES | Activity [5] | IC50 [6] [nM] | Activity [7] | IC50 [8] [nM] | IC50 [9] [nM] | IC50 [12] [nM] | further results
1 | Cn1nnc2c(C(N)=O)ncn2c1=O | – | – | – | – | – | – | inhibition [1]: Active; inhibition [2]: Active; Activity [3]: Active; Activity [4]: Active
2 | C[C@@H]1CC[C@@]2(OC1)O[C@H]1C[C@H]3[C@@H]4CC=C5C[C@@H](O[C@@H]6O[C@H](CO)[C@@H](O[C@@H]7O[C@@H](C)[C@H](O[C@@H]8O[C@@H](C)[C@H](O)[C@@H](O)[C@H]8O)[C@@H](O)[C@H]7O)[C@H](O)[C@H]6O[C@@H]6O[C@@H](C)[C@H](O)[C@@H](O)[C@H]6O)CC[C@]5(C)[C@H]4CC[C@]3(C)[C@H]1[C@@H]2C [PENNOGENIN RAHAMNOSYL CHACOTRIOSIDE] | inactive | 1830 | inactive | 1830 | – | – | –
3 | C[C@@H]1CC[C@@]2(OC1)O[C@H]1C[C@H]3[C@@H]4CC=C5C[C@@H](O[C@@H]6O[C@H](CO)[C@@H](O)[C@H](O)[C@H]6O[C@@H]6O[C@@H](C)[C@H](O)[C@@H](O)[C@H]6O)CC[C@]5(C)[C@H]4CC[C@]3(C)[C@H]1[C@@H]2C [OPHIOPOGONIN C] | – | – | – | – | 780 | 780 | Activity ([10]; human, u-87mg atcc, time 72 hrs): Non-Toxic; Activity ([6]; human, huvec, time 72 hrs): Non-Toxic; Activity ([11]; human, t98g, time 72 hrs): Non-Toxic; Activity ([8]; human, hek-293t, time 72 hrs): Non-Toxic
4 | CC(=O)O[C@H]1C(=O)[C@@]2(C)[C@H]([C@H](OC(=O)c3ccccc3)[C@]3(O)C[C@H](OC(=O)[C@H](O)[C@@H](NC(=O)c4ccccc4)c4ccccc4)C(C)=C1C3(C)C)[C@]1(OC(C)=O)CO[C@@H]1C[C@@H]2O [PACLITAXEL] | – | 5 | – | 10 | 11300 | 9600 | Activity [13]: Toxic; Activity [14]: Active; IC50 ([10]; Homo sapiens, U-87 MG): 8 nM; IC50 ([11]; Homo sapiens, T98G): 12 nM; Activity [15]: Toxic; Activity [16]: Toxic; Activity [17]: Toxic; Activity [18]: Active
5 | C[C@@H]1O[C@@H](O[C@H]2[C@H](O[C@H]3CC[C@@]4(C)C(=CC[C@H]5[C@@H]6C[C@@H]7O[C@@]8(OC[C@H](CO)CC8O[C@H]8O[C@@H](CO)[C@H](O)[C@@H](O)[C@@H]8O)[C@@H](C)[C@@H]7[C@@]6(C)CC[C@@H]54)C3)O[C@H](CO)[C@@H](O[C@@H]3O[C@@H](C)[C@H](O)[C@@H](O)[C@H]3O)[C@@H]2O)[C@H](O)[C@H](O)[C@H]1O (stereo partly specified) | inactive | – | inactive | – | – | – | –
6 | C[C@@H]1CC[C@@]2(OC1)O[C@H]1C[C@H]3[C@@H]4CC=C5C[C@@H](O[C@@H]6O[C@H](CO)[C@@H](O[C@@H]7O[C@@H](C)[C@H](O)[C@@H](O)[C@H]7O)[C@H](O)[C@H]6O[C@@H]6O[C@@H](C)[C@H](O)[C@@H](O)[C@H]6O)CC[C@]5(C)[C@H]4CC[C@]3(C)[C@H]1[C@@H]2C | Active | – | Active | – | – | – | –
7 | CO[C@]1(CC[C@@H](C)CO[C@@H]2O[C@H](CO)[C@@H](O)[C@H](O)[C@H]2O)O[C@H]2C[C@H]3[C@@H]4CC=C5C[C@@H](O[C@@H]6O[C@H](CO)[C@@H](O[C@@H]7O[C@@H](C)[C@H](O)[C@@H](O)[C@H]7O)[C@H](O)[C@H]6O[C@@H]6O[C@@H](C)[C@H](O)[C@@H](O)[C@H]6O)CC[C@]5(C)[C@H]4CC[C@]3(C)[C@H]2[C@@H]1C [METHYLPROTODIOSCIN] | – | – | – | – | 1820 | 1820 | –
8 | C[C@H](CC[C@@]1(O)O[C@H]2C[C@H]3[C@@H]4CC=C5C[C@@H](O[C@@H]6O[C@H](CO)[C@@H](O[C@@H]7O[C@@H](C)[C@H](O)[C@@H](O)[C@H]7O)[C@H](O)[C@H]6O[C@@H]6O[C@@H](C)[C@H](O)[C@@H](O)[C@H]6O)CC[C@]5(C)[C@H]4CC[C@]3(C)[C@H]2[C@@H]1C)CO[C@@H]1O[C@H](CO)[C@@H](O)[C@H](O)[C@H]1O | – | 3220 | – | 3220 | 1030 | 1090 | –
